Structures can show the parent of a compound that is named as a salt.

One test relates to Acinetobacter baumannii ATCC17961. The test can be described thus: Antimicrobial susceptibility testing: 90% growth inhibitory concentration (IC90) determination, Iso-Sensitest broth, OD 600 nm. It is filed as cell-based. The following applies: 90% growth inhibitory concentration, Acinetobacter baumannii ATCC17961, Iso-Sensitest broth, OD 600 nm over 16 h; read-out: ATCC 17961 IC90. The essentials:
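Growth of bacteria (~5×10^5 CFU/ml, Iso-Sensitest medium, 35±2 °C) was followed by OD at 600 nm at 20-min intervals over 16 h against a 10-point twofold compound series (e.g. 50–0.097 μM final). Concentration giving 90% inhibition in log phase was reported.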
Broadly, the IC90 is the point of the concentration-response curve where the effect stands at 90%. For the compound `CCc1cc(Nc2nccn3c(-c4ccc(OC)c(F)c4F)cnc23)cc(F)c1C(=O)NCCOCCN` [Example 202, N-(2-(2-amino-ethoxy)ethyl)-4-((3-(2,3-difluoro-4-methoxyphenyl)imidazo[1,2-a]pyrazin-8-yl)amino)-2-ethyl-6-fluorobenzamide dihydrochloride], the IC90 came to 200 nM.

`CCc1cc(Nc2nccn3c(-c4cc(C)cc(F)c4)cnc23)ccc1C(=O)NCCOCCN` [Example 213, N-[2-(2-amino-ethoxy)ethyl]-2-ethyl-4-[[3-(3-fluoro-5-methyl-phenyl)imidazo [1,2-a]pyrazin-8-yl]amino] benzamide]: the 90% effect concentration (IC90) is 810 nM. Same read-out and setting: to `CCOCCCNC(=O)c1ccc(Nc2nccn3c(-c4ccc(OC)c(F)c4F)cnc23)cc1CC` [Example 224, 4-((3-(2,3-difluoro-4-methoxyphenyl)imidazo[1,2-a]pyrazin-8-yl)amino)-N-(3-ethoxypropyl)-2-ethylbenzamide] belongs 180 nM; to `C#CCOc1ccc(-c2cnc3c(Nc4ccc(C(=O)N[C@@H](C)CNCCNC(C)=O)c(CC)c4)nccn23)c(F)c1F` [Example 201, N-[(1S)-2-(2-acetamidoethyl-amino)-1-methyl-ethyl]-4-[[3-(2,3-difluoro-4-prop-2-ynoxy-phenyl)imidazo[1,2-a]pyrazin-8-yl]amino]-2-ethyl-benzamide], 360 nM.

As to `COc1ccc(-c2cnc3c(Nc4cc(C)c(C(=O)NCCOCCNC(=O)[C@@H]5C[C@@H](O)CN5)c(F)c4)nccn23)c(F)c1F` [Example 215, (2S,4R)-N-(2-(2-(4-((3-(2,3-difluoro-4-methoxyphenyl)imidazo[1,2-a]pyrazin-8-yl)amino)-2-fluoro-6-methyl-benzamido)ethoxy)ethyl)-4-hydroxy-pyrrolidine-2-carboxamide], the 90% effect concentration (IC90) was 230 nM. Same read-out and setting: in the case of `C#CCNCCCCNC(=O)c1ccc(Nc2nccn3c(-c4ccc(OC)c(F)c4F)cnc23)cc1CC` [Example 227, 4-[[3-(2,3-difluoro-4-methoxy-phenyl)imidazo[1,2-a]pyrazin-8-yl]amino]-2-ethyl-N-[4-(prop-2-ynylamino)butyl]benzamide] it was 30 nM; in that of `C=CCNCCCNC(=O)c1ccc(Nc2nccn3c(-c4ccc(OC)c(F)c4F)cnc23)cc1CC` [Example 181, 4-[[3-(2,3-difluoro-4-methoxyphenyl)imidazo[1,2-a]pyrazin-8-yl]amino]-2-ethyl-N-[3-(prop-2-enylamino)propyl] benzamide; hydrochloride], 160 nM. The same measure, in the same setting: in the case of `CCc1cc(Nc2nccn3c(-c4ccc(OC)c(F)c4C(F)(F)F)cnc23)ccc1C(=O)NCCOCCN` [Example 231] it was 60 nM.

Staying with this test, now noted: Acinetobacter baumannii, ATCC17961, 16 h, read-out: ATCC 17961 IC90.
With `CCc1cc(Nc2nccn3c(-c4ccc(OC)c(F)c4F)cnc23)ccc1C(=O)NCCOCCN(C)CC(=O)NS(C)(=O)=O` [Example 66, 4-((3-(2,3-difluoro-4-methoxyphenyl)imidazo[1,2-a]pyrazin-8-yl)amino)-2-ethyl-N-(2-(2-(methyl(2-(methylsulfonamido)-2-oxoethyl)amino)ethoxy)ethyl)benzamide dihydrochloride], the concentration for an effect of 90% (IC90) came to 370 nM.

Values taken from patent US20230017532A1 (Hoffmann-La Roche Inc., priority 2018, published 2023).
